Where a name gives a salt, the structure may show the parent alone. One block for each molecule: values may come before it.
Experiments:
[1] = Solubility in water of the salt forms of Compound 1; assay type: physicochemical; settings: for Native pH: pH of the aqueous solubility sample
[2] = Hygroscopicity (25° C.); assay type: physicochemical; settings: up to 80% RH
[3] = Chemical and physical stability at 40° C./75% relative humidity; assay type: physicochemical; settings: 6 Months at 40° C./75% relative humidity (RH)
[4] = target: human c-Met (Homo sapiens, UniProt P08581); assay: biochemical
human c-Met, sequence (P08581 956-1390 limits assumed): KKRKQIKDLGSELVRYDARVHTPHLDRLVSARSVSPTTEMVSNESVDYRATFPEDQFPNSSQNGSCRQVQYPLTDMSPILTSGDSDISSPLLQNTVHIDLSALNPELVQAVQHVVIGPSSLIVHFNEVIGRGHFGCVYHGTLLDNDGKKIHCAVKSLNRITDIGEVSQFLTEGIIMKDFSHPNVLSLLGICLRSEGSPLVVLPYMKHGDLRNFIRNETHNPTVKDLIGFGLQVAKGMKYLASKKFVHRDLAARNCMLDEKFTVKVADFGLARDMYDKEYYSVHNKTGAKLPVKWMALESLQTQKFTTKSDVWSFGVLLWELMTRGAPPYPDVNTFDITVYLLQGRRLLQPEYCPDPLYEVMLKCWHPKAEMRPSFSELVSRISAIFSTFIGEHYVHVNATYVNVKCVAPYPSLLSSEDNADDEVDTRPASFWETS
Method: The procedure for determining the potency of a compound to inhibit c-Met kinase comprises the following steps: • 1. Prepare 3-fold serial diluted compound solutions in 100% dimethyl sulfoxide (DMSO) at 20× of the desired final concentrations in a 96 well plate. • 2. […] In a black assay plate, add 2.5 μl of compound solution (or DMSO) and 37.5 μl of master reaction mix per well. Initiate the kinase reaction by adding 10 μl of 0.25 mM MgATP per well. Allow the reactions to proceed for 80 min at room temperature. The final conditions for the reaction are 0.2 nM c-Met, 0.5 μM substrate, 50 μM MgATP, 5 mM MgCl2, 100 mM NaCl, 2 mM DTT, 0.1 mg/ml BSA, 50 mM Tris (pH 7.4) and 5% DMSO. • 4. […] Read HTRF signals on a Victor reader (PerkinElmer) in HTRF mode after 60 min. • 6.

[5] = listed as Crystalline potassium salt, potassium salt monohydrate
[6] = listed as Crystalline Sodium salt, sodium salt dihydrate

Native pH [1, 5]: pH = 10.7
Solubility in water [1, 5]: >170 mg/mL
Hygroscopicity (25° C.) [2, 5]: 0.81% up
SMILES: CN(C[C@@H]1COCCO1)S(=O)(=O)Nc1ccc2ccc3ncc(-c4cnn(C)c4)cc3c(=O)c2c1 [Compound 1 potassium salt monohydrate, N-[(2R)-1,4-dioxan-2-ylmethyl]-N-methyl-N′-[3-(1-methyl-1H-pyrazol-4-yl)-5-oxo-5H-benzo[4,5]cyclohepta[1,2-b]pyridin-7-yl]sulfamide potassium salt monohydrate]

Native pH [1, 6]: pH = 10.5
Solubility in water [1, 6]: >400 mg/mL
Hygroscopicity (25° C.) [2, 6]: 0.14% up
chemical and physical stability [3]: chemically and physically stable
SMILES: CN(C[C@@H]1COCCO1)S(=O)(=O)Nc1ccc2ccc3ncc(-c4cnn(C)c4)cc3c(=O)c2c1 [Compound 1 sodium salt dihydrate, N-[(2R)-1,4-dioxan-2-ylmethyl]-N-methyl-N′-[3-(1-methyl-1H-pyrazol-4-yl)-5-oxo-5H-benzo[4,5]cyclohepta[1,2-b]pyridin-7-yl]sulfamide sodium salt dihydrate]

Solubility in water ([1]; listed as Free Acid): 0.003 mg/mL
Hygroscopicity (25° C.) ([2]; listed as Free Acid): 0.4% up to
IC50 [4]: ≥ 50 µM
SMILES: CN(C[C@@H]1COCCO1)S(=O)(=O)Nc1ccc2ccc3ncc(-c4cnn(C)c4)cc3c(=O)c2c1 [Compound 1, N-[(2R)-1,4-dioxan-2-ylmethyl]-N-methyl-N′-[3-(1-methyl-1H-pyrazol-4-yl)-5-oxo-5H-benzo[4,5]cyclohepta[1,2-b]pyridin-7-yl]sulfamide]
